Experimental data published in publication PMC9587005, “Phosphatidic Acid Mediates the Nem1-Spo7/Pah1 Phosphatase Cascade in Yeast Lipid Synthesis” (Journal of Lipid Research, 2022).

Target: T1, Nem1-Spo7 protein phosphatase complex (Saccharomyces cerevisiae, UniProt P38757)
T1 construct: Protein A-tagged Nem1 with Spo7, overexpressed in S. cerevisiae RS453, IgG-Sepharose purified, reconstituted into phospholipid vesicles
T1 sequence (P38757 1-446): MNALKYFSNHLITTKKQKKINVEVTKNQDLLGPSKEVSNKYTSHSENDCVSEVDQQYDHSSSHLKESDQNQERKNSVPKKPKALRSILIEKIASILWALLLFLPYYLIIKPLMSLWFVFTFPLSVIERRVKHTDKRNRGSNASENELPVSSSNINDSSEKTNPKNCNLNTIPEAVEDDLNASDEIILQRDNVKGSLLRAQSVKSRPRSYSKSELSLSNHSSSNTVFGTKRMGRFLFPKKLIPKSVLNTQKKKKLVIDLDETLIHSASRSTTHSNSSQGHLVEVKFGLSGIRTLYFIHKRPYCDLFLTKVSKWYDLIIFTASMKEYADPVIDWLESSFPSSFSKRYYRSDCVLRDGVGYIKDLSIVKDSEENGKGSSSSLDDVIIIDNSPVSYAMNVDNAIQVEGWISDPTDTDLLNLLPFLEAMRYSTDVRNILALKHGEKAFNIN
T1 sequence (P18410 1-259 partner): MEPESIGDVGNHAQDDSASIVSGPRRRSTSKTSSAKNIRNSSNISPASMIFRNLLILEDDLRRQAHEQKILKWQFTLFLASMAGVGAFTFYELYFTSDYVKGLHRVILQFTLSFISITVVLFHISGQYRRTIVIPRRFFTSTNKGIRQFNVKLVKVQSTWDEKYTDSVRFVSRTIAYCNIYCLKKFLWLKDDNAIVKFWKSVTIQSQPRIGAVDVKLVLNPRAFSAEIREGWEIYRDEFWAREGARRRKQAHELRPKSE
Assay: release of […] from […]Pah1, proteoliposomes
Assay type: biochemical
Settings: activator (cooperative), direct binding not shown, membrane effect possible; reconstituted in PC/PE/PI/PS vesicles; substrate Pah1 phosphorylated by Pho85-Pho80; 10 mM MgCl2, pH 5.0, 30 °C

## CCCCCCCC/C=C\CCCCCCCC(=O)OC[C@H](COP(=O)(O)O)OC(=O)CCCCCCC/C=C\CCCCCCCC [PA]
  fold stimulation at 10 mol %: 3.6 fold
